Read-outs that look alike come from different tables or passages of the source. Numbered stars: 1 amine (or outer) side, 2 acyl side, 3 side chain; on linkers, the order of the positions; unused ones are H or OH. Bridge positions count the residues as written; N and C are the ends. Side chains are listed from the residue outwards. Peptide text beside a SMILES is read from it. * marks the point of attachment. C20 diacid = O=C(O)CCCCCCCCCCCCCCCCCCC(=O)*; γGlu = O=C(O)[C@H](CCC(=O)[*:2])N[*:1]; AEEA = NCCOCCOCC(=O)O
Tests used:
[1] = ASSAY (III) ThT fibrillation assay for physical stability; format: physicochemical
Procedure, shortened: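 Formulations with 1 μM ThT, pH adjusted as required, incubated at 37 °C with 960 rpm orbital shaking; fluorescence (ex 444/em 485 nm) read every 20 min. Fibrillation reported as mean ThT fluorescence ± SD of 4–8 replicates at time points; polypeptide concentration measured by reverse-phase HPLC before and after, post-centrifugation.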

[2] = ASSAY (IV) determination of solubility; format: physicochemical
Procedure, shortened: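 Polypeptide in water at […] mixed 1:1 with 100 mM buffers of pH 3.0-8.0 (glycylglycine pH 3-5, bistrispropane pH 6-8). Held 18 h at room temperature, then centrifuged; concentration remaining in solution measured by UPLC.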

[3] = bistrispropane buffer, pH 6.5, read-out: Solubility pH 6.5 Concentration
[4] = bistrispropane buffer, pH 7.5, read-out: Solubility pH 7.5 Concentration
[5] = bistrispropane buffer, pH 6.0, read-out: Solubility pH 6.0 Concentration
[6] = bistrispropane buffer, pH 7.0, read-out: Solubility pH 7.0 Concentration
[7] = bistrispropane buffer, pH 8.0, read-out: Solubility pH 8.0 Concentration
[8] = glycylglycine buffer, pH 3.0, read-out: Solubility pH 3.0 Concentration
[9] = glycylglycine buffer, pH 4.0, read-out: Solubility pH 4.0 Concentration
[10] = glycylglycine buffer, pH 5.0, read-out: Solubility pH 5.0 Concentration

In the case of CC[C@H](C)[C@H](NC(=O)[C@H](C)NC(=O)CNC(=O)[C@H](Cc1ccccc1)NC(=O)[C@H](CC(N)=O)NC(=O)[C@@H]1CCCN1C(=O)[C@H](CO)NC(=O)[C@H](CO)NC(=O)[C@H](Cc1c[nH]cn1)NC(=O)[C@H](CCCNC(=N)N)NC(=O)[C@H](CC(C)C)NC(=O)[C@H](Cc1ccccc1)NC(=O)[C@H](CC(N)=O)NC(=O)[C@H](C)NC(=O)[C@H](CC(C)C)NC(=O)[C@H](CCCNC(=N)N)NC(=O)[C@H](CCC(N)=O)NC(=O)[C@@H](NC(=O)[C@H](C)NC(=O)[C@@H]1CSSC[C@H](NC(=O)[C@@H](N)CCCCNC(=O)COCCOCCNC(=O)CC[C@H](NC(=O)CCCCCCCCCCCCCCCCCCC(=O)O)C(=O)O)C(=O)N[C@@H](CC(N)=O)C(=O)N[C@@H]([C@@H](C)O)C(=O)N[C@@H](C)C(=O)N[C@@H]([C@@H](C)O)C(=O)N1)[C@@H](C)O)C(=O)N1CCC[C@H]1C(=O)N[C@@H](CO)C(=O)N[C@@H](CO)C(=O)N[C@H](C(=O)N[C@@H](CC(N)=O)C(=O)N[C@H](C(=O)NCC(=O)N[C@@H](CO)C(=O)N[C@@H](CCC(=O)O)C(=O)N[C@H](C(=O)N[C@@H](Cc1ccc(O)cc1)C(N)=O)[C@@H](C)O)C(C)C)[C@@H](C)O [Example 26] (H-K([AEEA-γGlu-C20 diacid])CNTATCATQRLANFLRHSSPNFGAIPSSTNVGSETY-NH2; disulfide 2-7; N-terminus assumed), the “ThT pH 4.0 lag time (h)” value [1] is reported as 12 h, the solubility at 18 h [2, 3] is reported as ≥ 200 µM and the solubility at 18 h [2, 4] is reported as ≥ 200 µM. The solubility at 18 h [2, 5] was ≥ 200 µM, the solubility at 18 h [2, 6] was ≥ 200 µM and the solubility at 18 h [2, 7] was ≥ 200 µM. The solubility at 18 h [2, 8] was ≥ 200 µM, the solubility at 18 h [2, 9] was ≥ 200 µM and the solubility at 18 h [2, 10] was ≥ 200 µM.
For CC[C@H](C)[C@H](NC(=O)[C@H](C)NC(=O)CNC(=O)[C@H](Cc1ccccc1)NC(=O)[C@H](CC(N)=O)NC(=O)[C@@H]1CCCN1C(=O)[C@H](CO)NC(=O)[C@H](CO)NC(=O)[C@H](Cc1c[nH]cn1)NC(=O)[C@H](CCCNC(=N)N)NC(=O)[C@H](CC(C)C)NC(=O)[C@H](Cc1ccccc1)NC(=O)[C@H](CC(N)=O)NC(=O)[C@H](C)NC(=O)[C@H](CC(C)C)NC(=O)[C@H](CCCNC(=N)N)NC(=O)[C@H](CCC(N)=O)NC(=O)[C@@H](NC(=O)[C@H](C)NC(=O)[C@@H]1CSSC[C@H](NC(=O)[C@@H](N)CCCCNC(=O)CC[C@H](NC(=O)CCCCCCCCCCCCCCCCCCC(=O)O)C(=O)O)C(=O)N[C@@H](CC(N)=O)C(=O)N[C@@H]([C@@H](C)O)C(=O)N[C@@H](C)C(=O)N[C@@H]([C@@H](C)O)C(=O)N1)[C@@H](C)O)C(=O)N1CCC[C@H]1C(=O)N[C@@H](CO)C(=O)N[C@@H](CO)C(=O)N[C@H](C(=O)N[C@@H](CC(N)=O)C(=O)N[C@H](C(=O)NCC(=O)N[C@@H](CO)C(=O)N[C@@H](CCC(=O)O)C(=O)N[C@H](C(=O)N[C@@H](Cc1ccc(O)cc1)C(N)=O)[C@@H](C)O)C(C)C)[C@@H](C)O [Example 27], the “ThT pH 4.0 lag time (h)” value [1] was 28 h, the solubility at 18 h [2, 3] was ≥ 200 µM and the solubility at 18 h [2, 4] was ≥ 200 µM. For the same compound, the solubility at 18 h [2, 5] was ≥ 200 µM, the solubility at 18 h [2, 6] was ≥ 200 µM and the solubility at 18 h [2, 7] was ≥ 200 µM. The solubility at 18 h [2, 8] was ≥ 200 µM, the solubility at 18 h [2, 9] was ≥ 200 µM and the solubility at 18 h [2, 10] was ≥ 200 µM.
With CC[C@H](C)[C@H](NC(=O)[C@H](C)NC(=O)CNC(=O)[C@H](Cc1ccccc1)NC(=O)[C@H](CC(N)=O)NC(=O)[C@@H]1CCCN1C(=O)[C@H](CO)NC(=O)[C@H](CO)NC(=O)[C@H](Cc1c[nH]cn1)NC(=O)[C@H](CCCNC(=N)N)NC(=O)[C@H](CC(C)C)NC(=O)[C@H](Cc1ccccc1)NC(=O)[C@H](CCC(=O)O)NC(=O)[C@H](C)NC(=O)[C@H](CC(C)C)NC(=O)[C@H](CCCNC(=N)N)NC(=O)[C@H](CCC(N)=O)NC(=O)[C@@H](NC(=O)[C@H](C)NC(=O)[C@@H]1CSSC[C@H](NC(=O)[C@H](CCCCN)NC(=O)CC[C@H](NC(=O)CCCCCCCCCCCCCCCCCCC(=O)O)C(=O)O)C(=O)N[C@@H](CC(N)=O)C(=O)N[C@@H]([C@@H](C)O)C(=O)N[C@@H](C)C(=O)N[C@@H]([C@@H](C)O)C(=O)N1)[C@@H](C)O)C(=O)N[C@@H](CC(C)C)C(=O)N1CCC[C@H]1C(=O)N[C@@H](CO)C(=O)N[C@H](C(=O)N[C@@H](CC(N)=O)C(=O)N[C@H](C(=O)NCC(=O)N[C@@H](CO)C(=O)N[C@@H](CCC(=O)O)C(=O)N[C@H](C(=O)N[C@@H](Cc1ccc(O)cc1)C(N)=O)[C@@H](C)O)C(C)C)[C@@H](C)O [Example 33] ({C20 diacid-γGlu}-KCNTATCATQRLAEFLRHSSPNFGAILPSTNVGSETY-NH2; disulfide 2-7) the “ThT pH 4.0 lag time (h)” value [1] was 9 h, the solubility at 18 h [2, 3] was ≥ 200 µM and the solubility at 18 h [2, 4] was ≥ 200 µM. For the same compound, the solubility at 18 h [2, 5] was ≥ 200 µM, the solubility at 18 h [2, 6] was ≥ 200 µM and the solubility at 18 h [2, 7] was ≥ 200 µM. The solubility at 18 h [2, 8] was ≥ 200 µM, the solubility at 18 h [2, 9] was ≥ 200 µM and the solubility at 18 h [2, 10] was ≥ 200 µM.
With CC[C@H](C)[C@H](NC(=O)[C@H](C)NC(=O)CNC(=O)[C@H](Cc1ccccc1)NC(=O)[C@H](CC(N)=O)NC(=O)[C@@H]1CCCN1C(=O)[C@H](CO)NC(=O)[C@H](CO)NC(=O)[C@H](Cc1c[nH]cn1)NC(=O)[C@H](CCCNC(=N)N)NC(=O)[C@H](CC(C)C)NC(=O)[C@H](Cc1ccccc1)NC(=O)[C@H](CCC(=O)O)NC(=O)[C@H](C)NC(=O)[C@H](CC(C)C)NC(=O)[C@H](CCCNC(=N)N)NC(=O)[C@H](CCC(N)=O)NC(=O)[C@@H](NC(=O)[C@H](C)NC(=O)[C@@H]1CSSC[C@H](NC(=O)[C@H](CCCCN)NC(=O)CC[C@H](NC(=O)CCCCCCCCCCCCCCCCCCC(=O)O)C(=O)O)C(=O)N[C@@H](CC(N)=O)C(=O)N[C@@H]([C@@H](C)O)C(=O)N[C@@H](C)C(=O)N[C@@H]([C@@H](C)O)C(=O)N1)[C@@H](C)O)C(=O)N1CCC[C@H]1C(=O)N[C@@H](CO)C(=O)N1CCC[C@H]1C(=O)N[C@H](C(=O)N[C@@H](CC(N)=O)C(=O)N[C@H](C(=O)NCC(=O)N[C@@H](CO)C(=O)N[C@@H](CC(N)=O)C(=O)N[C@H](C(=O)N[C@@H](Cc1ccc(O)cc1)C(N)=O)[C@@H](C)O)C(C)C)[C@@H](C)O [Example 37] ({C20 diacid-γGlu}-KCNTATCATQRLAEFLRHSSPNFGAIPSPTNVGSNTY-NH2; disulfide 2-7 (inferred)) the “ThT pH 4.0 lag time (h)” value [1] was 15 h, the solubility at 18 h [2, 3] was ≥ 200 µM and the solubility at 18 h [2, 4] was ≥ 200 µM. The solubility at 18 h [2, 5] was ≥ 200 µM, the solubility at 18 h [2, 6] was ≥ 200 µM and the solubility at 18 h [2, 7] was ≥ 200 µM. For the same compound, the solubility at 18 h [2, 8] was ≥ 200 µM, the solubility at 18 h [2, 9] was ≥ 200 µM and the solubility at 18 h [2, 10] was ≥ 200 µM.
For CC[C@H](C)[C@H](NC(=O)[C@H](C)NC(=O)CNC(=O)[C@H](Cc1ccccc1)NC(=O)[C@H](CC(N)=O)NC(=O)[C@@H]1CCCN1C(=O)[C@H](CO)NC(=O)[C@H](CO)NC(=O)[C@H](Cc1c[nH]cn1)NC(=O)[C@H](CCCNC(=N)N)NC(=O)[C@H](CC(C)C)NC(=O)[C@H](Cc1ccccc1)NC(=O)[C@H](CCCCN)NC(=O)[C@H](C)NC(=O)[C@H](CC(C)C)NC(=O)[C@H](CCCNC(=N)N)NC(=O)[C@H](CCC(N)=O)NC(=O)[C@@H](NC(=O)[C@H](C)NC(=O)[C@@H]1CSSC[C@H](NC(=O)[C@@H](N)CCCCNC(=O)COCCOCCNC(=O)CC[C@H](NC(=O)CCCCCCCCCCCCCCCCCCC(=O)O)C(=O)O)C(=O)N[C@@H](CC(N)=O)C(=O)N[C@@H]([C@@H](C)O)C(=O)N[C@@H](C)C(=O)N[C@@H]([C@@H](C)O)C(=O)N1)[C@@H](C)O)C(=O)N1CCC[C@H]1C(=O)N[C@@H](CO)C(=O)N[C@@H](CO)C(=O)N[C@H](C(=O)N1CCC[C@H]1C(=O)N[C@H](C(=O)NCC(=O)N[C@@H](CO)C(=O)N[C@@H](CC(N)=O)C(=O)N[C@H](C(=O)N[C@@H](Cc1ccc(O)cc1)C(N)=O)[C@@H](C)O)C(C)C)[C@@H](C)O [Example 74] (H-K([AEEA-γGlu-C20 diacid])CNTATCATQRLAKFLRHSSPNFGAIPSSTPVGSNTY-NH2; disulfide 2-7; N-terminus assumed), the “ThT pH 4.0 lag time (h)” value [1] was 45 h, the solubility at 18 h ([2]; pH 3.0, read-out: Solubility pH 3.0 Concentration) was ≥ 200 µM and the solubility at 18 h ([2]; pH 4.0, read-out: Solubility pH 4.0 Concentration) was ≥ 200 µM. For the same compound, the solubility at 18 h ([2]; pH 5.0, read-out: Solubility pH 5.0 Concentration) was ≥ 200 µM, the solubility at 18 h ([2]; pH 6.0, read-out: Solubility pH 6.0 Concentration) was ≥ 200 µM and the solubility at 18 h ([2]; pH 6.5, read-out: Solubility pH 6.5 Concentration) was ≥ 200 µM. The solubility at 18 h ([2]; pH 7.0, read-out: Solubility pH 7.0 Concentration) was ≥ 200 µM, the solubility at 18 h ([2]; pH 7.5, read-out: Solubility pH 7.5 Concentration) was ≥ 200 µM and the solubility at 18 h ([2]; pH 8.0, read-out: Solubility pH 8.0 Concentration) was ≥ 200 µM.
